Values of other authors, collected in patent publication US20040109898A1, “Topical composition for heightened sensitivity” (priority 2002, published 2004).
Read-outs that look alike come from different tables or passages of the source.

How the values were obtained:
[1] = cold, heat, cooking, freezing

Row | SMILES | Scoville Units rating (panel of individuals; individual capsaicinoid) | Scoville Unit (SU) rating (panel of individuals; pure, individual capsaicinoids) | detectable to the palate in dilutions of (palate) | solubility in alcohols, fats, and oils (alcohols, fats, and oils) | solubility in water (water) | stability / retention of potency [1] | Scoville Unit (SU) rating (panel of individuals)
1 | COc1cc(CNC(=O)CCCC/C=C/C(C)C)ccc1O [Capsaicin, 8-methyl-N-vanillyl-6-(E)-nonenamide] | 16 million Scoville Units | 16 million SU | one to seventeen million | very soluble | slightly soluble | seemingly unaffected by cold or heat, which retains its original potency despite time, cooking, or freezing | –
2 | COc1cc(CNC(=O)CCCCC/C=C/C(C)C)ccc1O [Homocapsaicin, 9-methyl-N-vanillyl-7-(E)-decenamide] | – | – | – | – | – | – | 8.6 million SU
3 | COc1cc(CNC(=O)CCCCCCCC(C)C)ccc1O [Homodihydrocapsaicin, 9-methyl-N-vanillyl-decanamide] | – | 8.6 million SU | – | – | – | – | –
